This note sets out measurements from patent publication US7740906B2, “Wood preservatives” (Rohm and Haas Company, priority 2005, dated 2010).

The nature of data set [1]: Leaching assay (modified AWPA E11-97). The data set is classed as physicochemical. As to conditions: 1000 ppm, 3* (30% DCOIT in xylene); no polymer, no added surfactant. From the text:
In order to provide long term protection, the preservative needs to “fix” in the wood and not deplete too rapidly by volatilization or by leaching when the wood gets wet. It might be expected that enhanced penetration or enhanced movement of the preservative deep into the wood during treatment might also lead to reduced fixation of the organic wood preservative. However, it was discovered that the polymers used to provide enhanced penetration also effectively fix the organic biocide in the wood. Two different measures of fixation were used, a dislodgeable residue assay and a very aggressive leaching assay. The dislodgeable residue assay measures how much preservative can be removed or dislodged from the surface of the wood. This is a good assay to determine how much preservative is available or has migrated to the surface of the wood. […] All of the polymers provided exceptional control of dislodgeable residues except for one water soluble polymer that probably redissolves under the assay conditions. Another measure of fixation is resistance to leaching. A very aggressive leaching assay, the AWPA E11-97 assay was used. DCOIT is considered a low leaching organic biocide as is seen by the cumulative % of DCOIT leached in Table 6 with the xylene formulation which doesn't contain any added surfactant. Nonionic surfactants can facilitate the leaching of organic preservatives. […]

Data set [2] is described as follows: Partitioning of DCOIT between polymer and supernatant of the treatment solution (centrifugation, HPLC). In kind it is physicochemical. As to conditions: treatment solution (1500 ppm DCOIT) centrifuged at 100,000 RPM for 20 minutes. The method, then: An aliquot of well-mixed sample was weighed into a one-ounce screw cap vial. Into the vial was pipetted 20 mL of methanol. The contents were sonicated for one hour in an ultrasonic bath. The sample was filtered through a 0.2 μm filter into an auto-sampler for analysis. The sample preparation was analyzed using a reverse phase HPLC procedure with UV detection according to the wood analysis method below.
A 3 g sample of as is treatment solution was centrifuged at 10,000 RPM for 10 minutes to precipitate any gelled polymer or other particulates. No solid precipitated. The treatment solution sample was further centrifuged at 100,000 RPM for 20 minutes to precipitated the polymer. The precipitated polymer plug and the clear supernatant were analyzed for DCOIT by HPLC.

For `CCCCCCCCn1sc(Cl)c(Cl)c1=O` [DCOIT, 4,5-dichloro-2-n-octyl-4-isothiazolin-3-one], the “% Biocide Leached (cumulative)” value in data set [1] worked out at 4.4%. For the same compound, in data set [2], the “DCOIT in polymer plug” value was 38,000 ppm and the DCOIT in supernatant turned out to be 34 ppm.
